Measurements published in patent US7196083B2, “Heteropolycyclic inhibitors of protein kinases” (priority 2000, dated 2007).
≈ marks a conversion by molar mass, not a printed value. Like-named read-outs stand apart in the source and are kept apart here.

Experiments:
[1] = biological target: PKB, full-length recombinant bovine protein, alpha form (Bos taurus, UniProt Q01314); assay: PKB inhibition in vitro enzyme assay (radioactive phosphate incorporation, scintillation counting); type: biochemical; conditions: PKB in vitro enzyme assay, 15 min at room temperature
[2] = test system: A-549 (human lung carcinoma); assay: [3H] thymidine uptake cell proliferation assay, A549; type: cell-based
[3] = test system: HT-29 human colon carcinoma; assay: [3H] thymidine uptake cell proliferation assay, HT29; type: cell-based; conditions: read-out: Cell Proliferation Effects (IC50 (nM))
[4] = test system: LL2 Lewis Lung human lung carcinoma; assay: [3H] thymidine uptake cell proliferation assay, LL2; type: cell-based; conditions: LL/2, read-out: Cell Proliferation Effects (IC50 (nM))
[5] = test system: PC3 (human prostate carcinoma); assay: [3H] thymidine uptake cell proliferation assay, PC3; type: cell-based; conditions: PC-3, read-out: Cell Proliferation Effects (IC50 (nM))
[6] = test system: LS-180 (human colon carcinoma); assay: [3H] thymidine uptake cell proliferation assay, LS180; type: cell-based; conditions: read-out: Cell Proliferation Effects (IC50 (nM))
[7] = test system: human breast carcinoma MDA-MB-435 cell line; assay: [3H] thymidine uptake cell proliferation assay, MDA435; type: cell-based; conditions: read-out: Cell Proliferation Effects (IC50 (nM))
Experimental: The human breast carcinoma MDA-MB-435 cell line was obtained from MD Anderson Cancer Center, and cultured in alpha-MEM media supplemented with 10% Fetal Bovine Serum. Cells were maintained in T150 tissue culture flasks, and grown at 37° C. in a humidified 5% CO2 incubator. All cells were passaged regularly using 0.25% Trypsin-EDTA in order to maintain cells at exponential growth for various experiments. LS 180 cells were passaged without trypsin and were physically scraped off the culture flasks. In vitro [^3H] thymidine uptake assay. Proliferation can be measured by quantifying the amount of [^3H] thymidine uptake into cells using a β-counter, and therefore is a well-established diagnostic tool to measure DNA synthesis within the cells. […] The cells were allowed to adhere to the plates via incubation at 37° C. in 5% CO2 for 12–14 hours. […] Then, 10 μL of the compound was added to the pre-existing 90 μL per well, and incubated further at 37° C. in 5% CO2 for 20 hours. To measure thymidine incorporation, cells were fixed onto the culture wells by slowly adding ¼^th volume of cold 50% TCA into each well (25 μL to each well) and incubated for 1–2 hours at 4° C. […] Then, 100 μL of scintillation fluid was added to each well and the activity counted using a Wallac Microbeta Counter.

[8] = physchem
Description: Solubility of KP-23172 was studied in various percent solutions of hydroxypropyl-B-cyclodextrin in water.

[9] = biological target: T1, PKB alpha (Homo sapiens, UniProt P31749); assay: Kinase assay in U87 cells using anti PKB alpha antibody; type: cell-based; conditions: U-87 MG, 1 h, after 60 min, read-out: PKB alpha isoform activity, reduction of activity to
T1 construct: endogenous in cells; host or cells: U87 cells
Experimental: (§1) In preparation for this assay, each cell line was seeded at a density of 3 times 1,000,000 cells per plate onto 150 mm culture dishes and allowed to establish o/n at 37 deg C. A confluency of 50–60% was obtained to ensure maximal drug penetration into each cell. Once the cells were adherent to the culture plates, there were treated with PKB inhibitor KP-23172 for a final conc. of 5 uM. Each culture plate was lysed on ice at specific time intervals using 1% NP-40 lysis buffer containing various protease inhibitors; 10 ug/uL aprotinin, 10 ug/ul leupeptin, 1 ug/ul pepstatin, 1 M beta-glycerophosphate and 100 mM PMSF. The resulting lysates were centrifuged at 15K×g at 4 deg C. for 5 min and then assayed for its protein conc. using Bradford's Reagent and absorbance measurements at 595 nm. Equal amounts of protein were transferred to a new centrifuge tube and treated with anti-PKB-PH antibody (Kinetek #XXP-021), anti-PKBalpha antibody (Signal Transduction #67220), or anti-PKB gamma antibody (UBI 306-607) and incubated end over end at 4 deg C. […] All vials were counted for one minute in the scintillation counter.
(§2) A kinase assay in cells was also performed using anti PKB alpha and gamma antibodies in order to determine any inhibition of the isoforms by KP-23172. U87 cells were treated with 5 uM compound, lysed, and the resulting supernatant was analyzed for any changed in PKB activity. […]

[10] = biological target: T2, PKB gamma (Homo sapiens, UniProt Q9Y243); assay: Kinase assay in U87 cells using anti PKB gamma antibody; type: cell-based; conditions: U-87 MG, 1 h, after 60 min, read-out: PKB gamma isoform activity, reduction of activity to
T2 construct: endogenous in cells; host or cells: U87 cells
Experimental: as §1, §2

T2 sequence (Q9Y243 whole entry, canonical isoform): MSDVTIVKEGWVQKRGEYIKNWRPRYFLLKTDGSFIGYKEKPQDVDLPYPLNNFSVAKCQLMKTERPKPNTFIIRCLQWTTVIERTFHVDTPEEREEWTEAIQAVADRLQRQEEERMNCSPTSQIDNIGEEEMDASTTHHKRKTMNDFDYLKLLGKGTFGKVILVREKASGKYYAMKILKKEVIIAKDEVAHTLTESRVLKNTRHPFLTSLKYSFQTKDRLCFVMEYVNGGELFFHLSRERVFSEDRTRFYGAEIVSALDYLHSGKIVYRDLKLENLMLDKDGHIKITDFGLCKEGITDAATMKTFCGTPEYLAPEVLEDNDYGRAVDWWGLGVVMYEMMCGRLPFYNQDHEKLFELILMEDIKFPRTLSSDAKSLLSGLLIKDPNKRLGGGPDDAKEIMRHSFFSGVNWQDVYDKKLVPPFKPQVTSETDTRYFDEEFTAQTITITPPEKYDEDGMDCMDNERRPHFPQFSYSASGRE
T1 sequence (P31749 whole entry, canonical isoform): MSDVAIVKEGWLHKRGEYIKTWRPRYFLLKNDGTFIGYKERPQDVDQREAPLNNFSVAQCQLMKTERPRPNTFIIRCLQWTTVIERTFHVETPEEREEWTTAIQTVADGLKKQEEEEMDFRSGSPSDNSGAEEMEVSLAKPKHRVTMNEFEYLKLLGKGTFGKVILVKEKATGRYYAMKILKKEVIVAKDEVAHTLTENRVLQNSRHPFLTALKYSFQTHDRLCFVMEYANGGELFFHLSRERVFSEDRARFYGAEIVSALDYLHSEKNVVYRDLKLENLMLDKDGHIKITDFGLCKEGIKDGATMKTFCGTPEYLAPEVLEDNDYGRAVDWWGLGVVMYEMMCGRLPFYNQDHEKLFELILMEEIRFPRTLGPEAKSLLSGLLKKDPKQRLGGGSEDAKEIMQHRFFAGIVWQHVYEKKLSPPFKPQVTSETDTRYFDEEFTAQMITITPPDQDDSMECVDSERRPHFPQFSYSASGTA
PKB, full-length recombinant bovine protein, alpha form, sequence (Q01314 whole entry): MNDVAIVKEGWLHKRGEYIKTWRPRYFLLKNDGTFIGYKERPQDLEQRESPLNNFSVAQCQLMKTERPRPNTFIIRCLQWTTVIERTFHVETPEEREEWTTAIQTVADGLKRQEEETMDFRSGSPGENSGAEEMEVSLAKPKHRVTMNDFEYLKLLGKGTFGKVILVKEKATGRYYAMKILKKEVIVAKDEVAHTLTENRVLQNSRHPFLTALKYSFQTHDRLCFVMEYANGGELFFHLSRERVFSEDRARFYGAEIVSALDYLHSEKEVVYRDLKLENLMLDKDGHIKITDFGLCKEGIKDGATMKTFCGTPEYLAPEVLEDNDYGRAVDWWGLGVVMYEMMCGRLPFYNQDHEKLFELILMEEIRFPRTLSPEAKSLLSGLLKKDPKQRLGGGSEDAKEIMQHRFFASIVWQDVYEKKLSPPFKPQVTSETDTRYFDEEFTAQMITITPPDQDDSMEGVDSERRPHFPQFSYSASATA

## O=C1c2ccccc2-c2nc3nnnn3nc21 [KP-23172]
[1]
  IC50: 15000 nM
[2]; A459 cells, read-out: Cell Proliferation in A459 IC50 in nm
  IC50: 80 nM
[2]; A549, read-out: Cell Proliferation Effects (IC50 (nM))
  IC50: 80 nM
[3]
  IC50: 200 nM
[4]
  IC50: 400 nM
[5]
  IC50: 250 nM
[6]
  IC50: 80 nM
[7]
  IC50: 60 nM
[8]
  1:1 binding constant for the cyclodextrin inclusion complex: 474
[8]; aqueous with cosolvent or surfactant or cyclodextrin
  solubility: 728 µg/mL (≈ 3250 µM)
[8]; water
  solubility: 77 µg/mL (≈ 343 µM)
[9]
  activity at 5 µM: 29.6%
[10]
  activity at 5 µM: 18.3%
